# In publication PMC12549899 (Nature Communications, 2025):
# Target: T1, human OTOP1 (hOTOP1) (Homo sapiens, UniProt Q7RTM1)
# T1 construct: expressed in transfected cells; host or cells: HEK-293 (CRL-1573, ATCC)
# T1 sequence (Q7RTM1 1-612): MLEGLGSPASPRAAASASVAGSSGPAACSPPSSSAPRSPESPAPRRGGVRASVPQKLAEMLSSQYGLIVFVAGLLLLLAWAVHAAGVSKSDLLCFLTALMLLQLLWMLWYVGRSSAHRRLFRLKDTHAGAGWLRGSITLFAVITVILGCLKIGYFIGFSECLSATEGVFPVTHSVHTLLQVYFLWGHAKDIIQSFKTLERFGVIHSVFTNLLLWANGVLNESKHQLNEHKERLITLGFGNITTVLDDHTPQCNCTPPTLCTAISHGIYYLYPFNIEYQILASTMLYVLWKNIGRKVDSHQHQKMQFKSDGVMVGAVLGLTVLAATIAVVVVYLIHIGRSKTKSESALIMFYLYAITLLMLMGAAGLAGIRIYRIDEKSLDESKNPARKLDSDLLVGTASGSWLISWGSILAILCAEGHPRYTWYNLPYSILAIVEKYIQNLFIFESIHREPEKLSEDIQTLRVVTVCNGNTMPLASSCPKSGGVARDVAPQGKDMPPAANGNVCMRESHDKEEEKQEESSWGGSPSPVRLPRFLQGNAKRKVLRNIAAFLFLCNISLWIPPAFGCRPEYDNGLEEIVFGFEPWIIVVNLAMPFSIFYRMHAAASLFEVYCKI
# Test: Whole-cell patch-clamp, inhibition of currents, hOTOP1 in HEK-293 cells
# Format: cell-based
# Conditions: HEK293, 300 µM (saturating concentration of C11)
# Text: The second series of compounds was again tested by whole-cell patch-clamp recording of DrOTOP1 expressed in HEK-293 cells. Of the 54 compounds tested, we identified 16 that inhibited DrOTOP1 acid-induced currents by over 25% (Fig. 2D and Supplementary Fig. 3E). […] The Hill coefficient of 1.52 indicated positive cooperativity and multiple binding sites, similar to C11. We next tested each of these compounds against mouse OTOP1 (mOTOP1) and human (Homo sapiens) OTOP1 (hOTOP1), which are among the closest related proteins in the mammalian proteome. […] For both compounds, we also determined whether there was any pH-dependence to their inhibitory effect by measuring dose-response curves over a range from pH 6.0, where sizable currents first appear, to pH 5.0. […]
# Whole-cell patch-clamp recording was performed as previously described[6],[22],[25]. Recordings were made with an Axopatch 200B amplifier, digitized with a Digidata 1322a 16-bit data acquisition system, acquired with pClamp 8.2 and analyzed with Clampfit 10 (Molecular Devices). […]
# All data are presented as mean ± SEM unless otherwise noted, and each data point represents an independent replicant. Inhibition of compounds was quantified as ((I2peak-I1)/(I2peak))*100, where I1 is the current immediately before wash-off and I2peak is the maximum recovered current (Supplementary Fig. 2). […]
smiles,measurement,value
"O=C(/C(=N\O)c1ccccc1)c1ccccc1 [C11, benzil monoxime]",inhibition at 300 µM,~24%
